Test system: ileal flora of meat chicken
Test: Gas production in vitro by ileal contents of meat chicken (wheat-based diet)
Type: cell-based
Source text: The purpose of the following tests is to compare the production of gas by the flora of the ileal contents of meat chicken, in relation to various test parameters. The production of gas is an indirect indicator of the bacterial activity of the ileal flora of the chicken.
50 meat chicken are raised with a wheat-based diet. These chicken are raised with the same nutritional regimen. The chicken are sacrificed on the 35th day, then the contents of their ileum are removed in anaerobic conditions. The contents are placed in bottles which are stored at −18° C.
Based on the experimental design described in Table I below, the volume of gas produced is measured as a function of time.
48 bottles are filled successively with:
the treatment (nothing for the negative control, HMTBA, EO or the test item),
90 ml of buffer solution, containing wheat starch (nutrient medium for the bacteria); the function of this buffer solution is to maintain a constant pH and suppress O2
10 ml of inoculum, comprising a mixture of ¼ of ileal contents and ¾ of sterile physiological solution, which is filtered and homogenized before filling.
The doses tested are calculated to be representative of the concentrations of the products that would be found in the gastrointestinal contents of the animals.
Using the experimental design described in Table I above, curves of the volume of gas produced as a function of time are obtained, and are mostly sigmoidal.
These curves are modelled according to the following model: Y=A/(1+(C/t)^B) where
A, B and C=parameters of the model
Using these equations, we then analyse the modelled final volume Vf (Vf=A), as well as the time for which the rate of production of gas is maximum, called Trm (this time is used as an indirect measure of the latency, which is not accessible with this model). […] If the probability of the treatment effect is significant, i.e. if p<0.05, the means are then compared by the Fisher PLSD test, which makes it possible to establish the differences on the means between the various treatments.
The experimental conditions and parameters of Example 1 are repeated in Example 2, according to Table III below.
The experimental conditions and parameters of example 1 are repeated in Example 3, according to Table V below.
The experimental conditions and parameters of Example 1 are repeated in example 4, according to Table VII below.
For this test, ileal flora derived from 35-day-old chickens fed with a wheat-based diet is used.
In this test, one of the mixtures tested in Example 1 is tested.

[1] = Example 1, wheat-based diet, HMTBA 83 mg, EO 28-50 mg per bottle (Table I), 4 repetitions
[2] = Example 2, HMTBA 83 mg, EO 15 mg (Table III), EO1 red thyme, EO2 tea tree
[3] = Example 3, HMTBA 83 mg, EO 15 mg (Table V), EO1 cinnamon
[4] = Example 4, HMTBA 83 mg, MEO 15 mg (Table VII), MEO 3/4 tea tree and 1/4 cinnamon
[5] = Example 8, HMTBA 113 mg, origanum oil 13 mg (Table XII)

2-hydroxy-4-methylthiobutanoic acid [HMTBA]
Effect on bacterial activity measured by Trm (in words) (Example 1): little if any effect | Trm: time for which the rate of production of gas is maximum, Mean [1]: 10.8 h | Vf: final volume of gas produced, Mean [1]: 565 mL | Trm: time for which the gas production rate is at a maximum, Mean [2]: 20.3 h | Vf: final volume of gas produced, Mean [2]: 296.2 mL | Trm: time for which the gas production rate is at a maximum, Mean [3]: 28.1 h | Vf: final volume of gas produced, Mean [3]: 334.3 mL | Trm: time for which the gas production rate is at a maximum, Mean [4]: 15.4 h | Vf: final volume of gas produced, Mean [4]: 421 mL | Trm difference with the negative control (Example 4, negative control Trm 11.1 h): 4.3 h | Effect on fermentation / activity of the bacterial flora (in words) (Example 8): no significant effect | Trm, Means [5]: 16.2 h | Vf, Means [5]: 353 mL

Reference: patent US8518993B2, “Combination of bioavailable methionine with at least one essential oil” (Adisseo Ireland Ltd., priority 2005, dated 2013)
